Measurements reported in US5830917A, “L-N^6 -(1-iminoethyl) lysine derivatives useful as nitric oxide synthase inhibitors” (G. D. Searle & Co., priority 1995, dated 1998).
Counter-ions that a name gives are not always drawn.

Columns and labels:
[1] = target: T1, human inducible NOS (hiNOS) (Homo sapiens, UniProt P35228); assay: Citrulline Assay for Nitric Oxide Synthase, hiNOS; assay type: biochemical; details: 37° C., 15 minutes, L-[2,3-3H]-arginine to citrulline
T1 construct: made in house; host or cells: insect cells, baculovirus vector
Experimental: (§1) Citrulline Assay for Nitric Oxide Synthase
(§2) Nitric oxide synthase activity was measured by monitoring the conversion of L-[2,3-3H]-arginine to L-[2,3-3H]-citrulline (1,2). The cDNA for human inducible NOS (hiNOS) was isolated from a λcDNA library made from RNA extracted from a colon sample from a patient with ulcerative colitis; human endothelial constitutive NOS (hecNOS) was isolated from a λcDNA library made from RNA extracted from human umbilical vein endothelial cells (HUVEC); and human neuronal constitutive NOS (hncNOS) was isolated from a λcDNA library made from RNA extracted from human cerebellum from a cadaver. The recombinant enzymes were expressed in insect cells using a baculovirus vector. Enzyme activity was isolated from cell extracts and partially purified by DEAE-Sepharose chromatography (2). Enzyme and inhibitors were added to give a volume of 50 μL in 50 mM Tris (pH 7.6) and the reaction initiated by the addition of 50 μL of a solution containing 50 mM Tris (pH 7.6), 2.0 mg/mL bovine serum albumin, 2.0 mM DTT, 4.0 mM CaCl2, 20 μM FAD, 100 μM tetrahydrobiopterin, 0.4-2.0 mM NADPH and 60 μM L-arginine containing 0.9 μCi of L-[2,3-3H]-arginine. […] The [3H]-citrulline was separated by chromatography on Dowex 50W X-8 cation exchange resin and radioactivity quantified with a liquid scintillation counter.

[2] = target: T2, human neuronal constitutive NOS (hncNOS) (Homo sapiens, UniProt P29475); assay: Citrulline Assay for Nitric Oxide Synthase, hncNOS; assay type: biochemical; details: 37° C., 15 minutes, with calmodulin 40-100 nM
T2 construct: made in house; host or cells: insect cells, baculovirus vector
Experimental: as §1, §2

[3] = target: T3, human endothelial constitutive NOS (hecNOS) (Homo sapiens, UniProt P29474); assay: Citrulline Assay for Nitric Oxide Synthase, hecNOS; assay type: biochemical; details: 37° C., 15 minutes, with calmodulin 40-100 nM
T3 construct: made in house; host or cells: insect cells, baculovirus vector
Experimental: as §1, §2

[4] = tested on: constitutive and the inducible NO synthase; details: background statement; cited from earlier work

SMILES | IC50 [1] | IC50 [2] | IC50 [3] | selectivity between constitutive and inducible NO synthase [4]
CC(=N)NCCCC[C@H](N)CNC(=N)N [Example 2, N-[5S-amino-6-[(aminoiminomethyl)amino]hexyl]ethanimidamide, trihydrochloride] | 22 µM | 35 µM | 0.479 mM | –
CC(=N)NCCCC[C@H](N)CNS(C)(=O)=O [Example 3, N-[5S-amino-6-[(methylsulfonyl)amino]hexyl]ethanimidamide, dihydrochloride] | 106 µM | 837 µM | 6.62 mM | –
CN=C(N)NCCC[C@H](N)C(=O)O [L-NMMA, L-N-monomethyl-arginine] | – | – | – | non-selective
